# Experimental data reported in patent publication US6943147B2, “Cancer treatment using proANP peptides” (University of South Florida, priority 2003, dated 2005).
# Key:
# [1] = system: pancreatic adenocarcinoma cells; conditions: in one study; cited from earlier work
# [2] = system: pancreatic adenocarcinoma cells; assay: DNA synthesis by bromodeoxyuridine (BrdU) incorporation into adenocarcinoma cells; format: cell-based, human; conditions: 24 hours
# From the text: To investigate whether these peptide hormones were inhibiting DNA synthesis and cell proliferation bromodeoxyuridine (BrdU) incorporation into the adenocarcinoma cells was utilized. BrdU was from BD Bioscience, San Jose, Calif. DNA synthesis and doubling of the genome take place during the synthetic or S phase. BrdU is a thymidine analog incorporated into nuclear DNA during the S phase of the cell cycle. Immunohistochemical methods use BrdU also as a marker of cell proliferation in cancer biology studies. After 24 hours in culture with 1 μM of LANP, vessel dilator, kaliuretic peptide, or ANP, respectively, or with no peptide hormone (i.e., control), BrdU in a final concentration of 10 μM in the cell culture medium was added for 45 minutes—which is time in which the cells are in the logarithmic phase of cell proliferation. For immunohistochemistry, a BrdU in situ detection kit from Becton Dickinson Immunocytochemistry Systems, San Jose, Calif., was utilized.
# After the 45 minutes with BrdU, the adenocarcinoma cells were washed three times in phosphate buffered saline (PBS), five minutes each. This was followed by placing the cells in a −80° C. freezer for five minutes and then 100% methanol was added at 5° C. in order for the cells to become permeable enabling the anti-BrdU antibody to reach the nucleus of the cell. The cells were then washed again in PBS before 100 μl of biotinylated anti-BrdU antibody was added. The coverslips were then incubated in a humidified chamber for one hour. After this incubation, the slides were rinsed in PBS, two minutes each. Then streptavidin-horseradish peroxidase (HRP) was added to each coverslip. The cells were then incubated for 30 minutes. Streptavidin-HRP binds to biotinylated anti-BrdU and HRP is used with addition of diaminobenzidine (DAB) substrate system to visualize BrdU incorporation into the adénocarcinoma cells. After the 30 minute incubation with streptavidin-HRP, the coverslips were rinsed in PBS, two minutes each time, before adding the DAB substrate solution, which contains DAB chromagen and DAB buffer, for five minutes. The coverslips were then rinsed in water, two minutes each time before counterstaining the slides with hematoxylin for 60 seconds followed by a thorough rinsing in water for five minutes. The incorporation of the BrdU stain into the nucleus was then counted using a Nikon Inverted Diaphot-TMD Microscope (Tokyo, Japan). The number of stained nuclei was compared in the four peptide hormone groups to the positive control group. The negative control for these studies was provided by Becton Dickinson Immunocytochemistry Systems.
# BrdU has an advantage over ^3H-thymidine incorporation in that it takes less time and provides high resolution.
# Cyclic GMP and prostaglandin E2 are the two known mediators of all of the previously described biologic effects of these four peptide hormones. All four of these peptide hormones-induced vasodilation of vasculature is mediated by increased cyclic GMP concentrations via enhancing guanylate cyclase activity. […] ANPs effects in the kidney are thought to be mediated by cyclic GMP. Each of these peptide hormones increase cyclic GMP while simultaneously dilating vasculature. 8 bromo-cyclic GMP reproduces these vasodilatory effects. For the present investigation of the mechanism of these peptide hormones' ability to inhibit DNA synthesis in cancer cells, 8-bromoguanosine 3′,5′-cyclic monophosphate (i.e., 8-bromo cyclic GMP, Sigma-Aldrich Co., St. Louis, Mo.) was utilized. 8-bromo cyclic GMP is a cell-permeable analog of cyclic GMP. 8-bromo cyclic GMP effects on DNA synthesis were investigated in dose-response curves with cyclic GMP concentrations ranging from 100 pM to 5 mM.
# Prostaglandin E2, i.e., (5Z, 11α, 13E, 15S)-11, 15-dihydro-9-oxo-prosta-5, 13-dien-I-oic acid was purchased from Sigma-Aldrich, St. Louis, Mo. […]
# [3] = system: hepatoblastoma cells; conditions: cited from earlier work
# [4] = system: rat mesangial cells; conditions: cited from earlier work
# [5] = system: pancreatic adenocarcinoma cell line, ATCC number CRL-2119; assay: Number of pancreatic adenocarcinoma cells in culture, counted by microscope; format: cell-based, human; conditions: for number of cancer cells compared to controls: 48 hours
# From the text: The pancreatic adenocarcinoma cell line, ATCC number CRL-2119, was derived in 1985 from a nude mouse xenograft of a primary tumor removed from the head of the pancreas. It is a moderate to well-differentiated pancreatic adenocarcinoma of ductal origin. These pancreatic adenocarcinoma cells are stimulated to proliferate in culture by insulin, insulin-like growth factor I (IGF-I), epidermal growth factor (EGF), and transforming growth factor alpha (TGF alpha). These adenocarcinoma cells contain significant concentrations of tumor-associated antigens CEA, CA 125, and CA 19-9. In culture, these adenocarcinoma cells form monolayers of morphologically heterogeneous polar epithelial cells. These cells are tumorgenic in that they form tumors in athymic nude mice at the site of inoculation that are histologically similar to the tumor of origin.
# Propagation of these cells was in Dulbecco's modified Eagle's plus Ham's F12-A 1:1 mixture of Dulbecco's modified Eagle's medium and Ham's F12 medium containing 1.2 g/L of sodium bicarbonate (Sigma Chemical Co., St. Louis, Mo.) supplemented with 15 mM HEPES and fetal bovine serum, 10%, at a temperature of 37° C. as recommended by the ATCC.
# These pancreatic adenocarcinoma cells were subcultured (passaged) by removing spent (i.e., old) medium by aspiration, and then adding calcium and magnesium free Hank's Balanced Salt Solution with 0.25% trypsin and 0.03% ethylenediaminetetracetic acid (EDTA). The culture was allowed to sit at room temperature for 2 to 5 minutes. Fresh medium was added to the adenocarcinoma cells which were dispensed into new flasks, with subculture every 6 to 8 days. The growth medium was changed every three days.
# After these adenocarcinoma cells were subcultured for 24 hours, they were then seeded to coverslips and transferred to 24 microwell plates (NUCOLON, Roskilde Denmark), with 1 ml Dulbeco Modified Eagle's (DME)/[…] nutrient culture media (Sigma Chemical Co.) with 10% fetal bovine serum (Atlanta Biologicals, Norcross, Ga.). After 24 hours, wells were washed twice with Dulbecco's Modified Eagle's/Ham's F12 with 0.1% bovine serum albumin (Sigma-Aldrich, St. Louis, Mo.) and allowed to incubate in this serum free medium for an additional 24 hour period of serum deprivation. Serum-free media was utilized to remove all variables (EGF, etc.) present in serum in order that interpretation of any data obtained would be straightforward. After 24 hours of serum deprivation, media volume was reduced to 250 μL per well with or without the respective peptide hormones at their 1 μM concentrations (1% of this volume). The adenocarcinoma cells were then incubated for various periods of time (24, 48, 72, and 96 hours).At the end of the above time periods, hematoxylin was added for 5 minutes to make the cells more visible for counting, and then they were washed for 5 minutes. The coverslips were then placed face down on microscope slides with the addition of 6 μl of histologic grade phosphate buffered saline (PBS)/I-glycine that had been filtered immediately before use with a 0.22 μm polyethersulfone, nonpyrogenic, sterile, low protein binding membrane (Corning 43117, Corning Inc., Corning, N.Y.). The number of adenocarcinoma cells were then counted with a cell counter evaluating ten fields of the microscope slide at 40× along the X-axis with an Olympus BH-2 microscope (Atlanta, Ga.). This evaluation was repeated on six separate occasions with the number of adenocarcinoma cells reflecting 60 observations for each group, i.e., 60 observations for controls and 60 observations for each of the four groups with respective peptide hormones. The only variable in this investigation was whether one of the four peptide hormones was added to the pancreatic adenocarcinoma cells. Otherwise all the adenocarcinoma cells were treated the same, i.e., with same culture medium, time of incubation, and processing of cells for the various investigations. […]
compound,measurement,setting,value
"O=c1[nH]cc(F)c(=O)[nH]1 [5-FU, 5-fluorouracil]",decrease in pancreatic adenocarcinoma cells in culture,[1],16%
"Nc1nc2c(nc(Br)n2[C@@H]2O[C@@H]3COP(=O)(O)O[C@H]3[C@H]2O)c(=O)[nH]1 [8-bromo cyclic GMP, 8-bromoguanosine 3′,5′-cyclic monophosphate]",decrease in DNA synthesis,[2]; 1 nM,25%
same,decrease in DNA synthesis,[2]; 1 μM,34%
same,decrease in DNA synthesis,[2]; 100 μM,39%
same,decrease in DNA synthesis,[2]; 1 mM,42%
same,decrease in DNA synthesis,[2]; 3 mM,46%
same,decrease in DNA synthesis,[2]; 5 mM,51%
CC[C@H](C)[C@@H]1NC(=O)[C@H](CCCNC(=N)N)NC(=O)[C@H](CC(=O)O)NC(=O)[C@H](CCSC)NC(=O)[C@H](CCCNC(=N)N)NC(=O)CNC(=O)CNC(=O)[C@H](Cc2ccccc2)NC(=O)[C@@H](NC(=O)[C@H](CO)NC(=O)[C@H](CO)NC(=O)[C@H](CCCNC(=N)N)NC(=O)[C@H](CCCNC(=N)N)NC(=O)[C@H](CC(C)C)NC(=O)[C@@H](N)CO)CSSC[C@@H](C(=O)N[C@@H](CC(N)=O)C(=O)N[C@@H](CO)C(=O)N[C@@H](Cc2ccccc2)C(=O)N[C@@H](CCCNC(=N)N)C(=O)N[C@@H](Cc2ccc(O)cc2)C(=O)O)NC(=O)CNC(=O)[C@H](CC(C)C)NC(=O)CNC(=O)[C@H](CO)NC(=O)[C@H](CCC(N)=O)NC(=O)[C@H](C)NC(=O)CNC1=O [ANP],inhibition of DNA synthesis,[3],22%
same,inhibition of DNA synthesis,[4],47% to 60
same,inhibition of DNA synthesis,[2]; 1 μM,83%
same,number of cancer cells compared to controls,[5]; 1 μM,33%
"CCCCC[C@H](O)/C=C/[C@H]1[C@H](O)CC(=O)[C@@H]1C/C=C\CCCC(=O)O [prostaglandin E2, (5Z, 11α, 13E, 15S)-11, 15-dihydro-9-oxo-prosta-5, 13-dien-I-oic acid]",decrease in DNA synthesis,[2]; 10 pg/ml,4%
same,decrease in DNA synthesis,[2]; 1 ng/ml,5%
same,decrease in DNA synthesis,[2]; 10 ng/ml,5%
same,decrease in DNA synthesis,[2]; 0.1 μg/ml,9%
same,decrease in DNA synthesis,[2]; 1 μg/ml,11%
same,decrease in DNA synthesis,[2]; 10 μg/ml,14%
same,decrease in DNA synthesis,[2]; 1 mg/ml,23%
"LANP: first 30 amino acids from the N-terminal end of the ANP prohormone (NPMYNAVSNADLMDFKNLLDHLEEKMPLED; long-acting natriuretic peptide; UniProt P01160 26-55, looked up, fragment)",inhibition of DNA synthesis,[2]; 1 μM,84%
same,decrease in the number of adenocarcinoma cells,"[5]; 1 μM, 24 hours, vs untreated cells",47%
same,number of adenocarcinoma cells,"[5]; 1 μM, 24 hours, untreated 183.4+/−8",97.7+/−3 cells per high powered field
same,number of cancer cells compared to controls,[5]; 1 μM,43%
same,decrease in the number of adenocarcinoma cells,"[5]; 1 μM, 72 hours, vs untreated cells",47%
same,decrease in the number of adenocarcinoma cells,"[5]; 1 μM, 96 hours, vs untreated cells",48%
same,decrease in the number of adenocarcinoma cells,[5]; time not stated,~50%
